Numbering of substitutions follows the chain as printed. {Cy3} = Cy3 fluorescent label
Tests used:
RIG-I [1] = target: T1, RIG-I (Homo sapiens, UniProt O95786); assay: Fluorescence anisotropy RNA binding; conditions: 10 nM labeled RNA, one-site binding fit, n = 4
T1 construct: Recombinant full-length human RIG-I or RIG-I single amino acid mutants (1–925, N-terminal His-tag); made in house; host or cells: High Five (Trichoplusia ni) insect cells, baculovirus, pFBDM vector
T1 sequence (O95786 1-925): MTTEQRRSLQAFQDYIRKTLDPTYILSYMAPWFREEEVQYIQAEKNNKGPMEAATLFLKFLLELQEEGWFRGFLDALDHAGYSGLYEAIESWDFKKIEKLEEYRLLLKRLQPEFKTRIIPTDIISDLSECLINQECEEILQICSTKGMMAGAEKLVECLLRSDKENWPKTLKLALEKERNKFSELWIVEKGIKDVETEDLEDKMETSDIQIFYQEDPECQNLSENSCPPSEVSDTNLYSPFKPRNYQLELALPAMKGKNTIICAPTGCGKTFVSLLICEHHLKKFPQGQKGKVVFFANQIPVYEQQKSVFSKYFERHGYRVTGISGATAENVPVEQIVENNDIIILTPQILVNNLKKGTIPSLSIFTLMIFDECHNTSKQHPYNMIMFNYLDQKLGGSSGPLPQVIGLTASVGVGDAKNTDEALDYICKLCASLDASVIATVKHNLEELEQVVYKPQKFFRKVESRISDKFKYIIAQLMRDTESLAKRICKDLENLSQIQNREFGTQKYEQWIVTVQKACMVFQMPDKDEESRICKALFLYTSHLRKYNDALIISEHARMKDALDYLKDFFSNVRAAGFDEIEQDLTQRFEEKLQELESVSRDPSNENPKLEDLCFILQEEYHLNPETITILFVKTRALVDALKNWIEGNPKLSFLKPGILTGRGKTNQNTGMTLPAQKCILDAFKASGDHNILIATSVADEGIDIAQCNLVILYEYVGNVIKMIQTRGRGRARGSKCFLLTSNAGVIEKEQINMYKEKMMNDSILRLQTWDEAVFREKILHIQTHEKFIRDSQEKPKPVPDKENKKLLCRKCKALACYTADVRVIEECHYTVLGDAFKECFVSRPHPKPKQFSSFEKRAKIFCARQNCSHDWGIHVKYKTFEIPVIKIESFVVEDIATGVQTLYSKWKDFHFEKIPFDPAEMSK
Procedure: (§1) Affinities of full-length RIG-I or RIG-I C268F (1–925, N-terminal His-tag) to a Cy3-labeled hpRNA (5'-Cy3-[…]-3', purchased from Biomers, Ulm, Germany) were determined using fluorescence anisotropy. All samples were prepared in 96-well black chimney microplates (Greiner Bio-One, Kremsmünster, Austria). 10 nM RNA was pre-incubated with different protein concentrations (2.4 nM – 5 µM) for 15 min at room temperature in assay buffer (25 mM HEPES, 50 mM KCl, 5 mM MgCl2, 1 mM DTT, pH 7). Fluorescence anisotropy was measured after the addition of 5 mM ATP using a TECAN M1000 microplate reader (Tecan, Männedorf, Switzerland) at λex/em = 530/570 nm and gain = 130 during a time course of 25 min in 1 min intervals. Assays were performed four times in independent experiments using the same protein purification batch. For determination of affinities, anisotropy values between 15 and 20 min measuring time were averaged and fit to the following single-site binding model using R ([R Development Core Team, 2013]):(1) y=Bmax[P]/P+KD where y is the observed anisotropy, [P] is the protein concentration, Bmax is the maximal anisotropy and KD is the dissociation constant. Fitting was performed globally on all available datasets. Representative values in figures are mean values ± SD.

RIG-I C268F [2] = target: T2, RIG-I C268F (Homo sapiens, UniProt O95786, C268F); assay: Fluorescence anisotropy RNA binding; conditions: 10 nM labeled RNA, one-site binding fit, n = 4
T2 construct: made in house; host or cells: High Five (Trichoplusia ni) insect cells, baculovirus, pFBDM vector
T2 sequence (O95786 1-925 C268F): T1 sequence (O95786 1-925) with C268F
Procedure: as §1

RIG-I C268F [3] = target: T2, RIG-I C268F; assay: MANT-nucleotide binding, tryptophan fluorescence FRET
Procedure: (§2) Binding of MANT-ATP and MANT-ATPγS to different full-length RIG-I mutants (1–925, N-terminal His-tag) was determined via Förster resonance energy transfer from RIG-I to MANT-ATP (Jena Bioscience, Jena, Germany). All samples were prepared in 96-well black chimney microplates. 2.2 µM protein and equimolar concentrations of a 14mer dsRNA (5'-CGACGCUAGCGUCG-3', see 'Protein crystalization') were pre-incubated with different MANT-ATP concentrations (0.2 µM – 200 µM) for 15 min at room temperature in assay buffer (25 mM HEPES, 50 mM NaCl, 5 mM MgCl2, 1 mM DTT, pH 7). Fluorescence of MANT-ATP was measured in a TECAN M1000 microplate reader at λex/em = 290/448 nm, gain = 170 using an average of five reads per well. Assays were performed four times in independent experiments using the same protein purification batch. For determination of affinities fluorescence values were fitted to Equation (1) using R, where y is the fluorescence, [P] is the protein concentration, Bmax is the maximal fluorescence and KD is the dissociation constant. Fitting was performed globally on all available datasets. Representative values in figures are mean values ± SD.

RIG-I [4] = target: T1, RIG-I; assay: as above; conditions: n = 4
Procedure: as §2, with “All samples were prepared in 96-well black chimney microplates. 2.2 µM protein and equimolar concentrations of a 14mer dsRNA (5'-CGACGCUAGCGUCG-3', see 'Protein crystalization') were pre-incubated with different MANT-ATP concentrations (0.2 µM – 200 µM) for 15 min at room temperature in assay buffer (25 mM HEPES, 50 mM NaCl, 5 mM MgCl2, 1 mM DTT, pH 7).” left out

RIG-I C268F [5] = target: T3, RIG-I C268F (human, UniProt O95786 1-925, C268F); assay: fluorescence anisotropy; no ATP, 5 mM Mg2+; Fluorescence anisotropy: 25 mM HEPES pH 7, 50 mM KCl, 5 mM MgCl2, 1 mM DTT, +/- 5 mM ATP, 10 nM RNA, room temperature; conditions: protein: recombinant; tags: N-terminal His-tag; label: 5'-Cy3; hairpin with non-base-paired ends
T3 sequence: T1 sequence (O95786 1-925) with C268F

RIG-I wild type = target: T4, RIG-I wild type (human, UniProt O95786 1-925); assay: as above; conditions: protein: recombinant; tags: N-terminal His-tag; label: 5'-Cy3; hairpin with non-base-paired ends
T4 sequence: T1 sequence (O95786 1-925)

RIG-I Δ2CARD C268F = target: T5, RIG-I Δ2CARD C268F (human, UniProt O95786 232-925, C268F); assay: crystal structure; co-crystallized with ADP-BeFx or ATP; no nucleotide bound in structure; Fluorescence anisotropy: 25 mM HEPES pH 7, 50 mM KCl, 5 mM MgCl2, 1 mM DTT, +/- 5 mM ATP, 10 nM RNA, room temperature; conditions: protein: recombinant; tags: N-terminal His-tag (insect cells) or His-SUMO3 cleaved off (E. coli); blunt, palindromic self-duplex
T5 sequence: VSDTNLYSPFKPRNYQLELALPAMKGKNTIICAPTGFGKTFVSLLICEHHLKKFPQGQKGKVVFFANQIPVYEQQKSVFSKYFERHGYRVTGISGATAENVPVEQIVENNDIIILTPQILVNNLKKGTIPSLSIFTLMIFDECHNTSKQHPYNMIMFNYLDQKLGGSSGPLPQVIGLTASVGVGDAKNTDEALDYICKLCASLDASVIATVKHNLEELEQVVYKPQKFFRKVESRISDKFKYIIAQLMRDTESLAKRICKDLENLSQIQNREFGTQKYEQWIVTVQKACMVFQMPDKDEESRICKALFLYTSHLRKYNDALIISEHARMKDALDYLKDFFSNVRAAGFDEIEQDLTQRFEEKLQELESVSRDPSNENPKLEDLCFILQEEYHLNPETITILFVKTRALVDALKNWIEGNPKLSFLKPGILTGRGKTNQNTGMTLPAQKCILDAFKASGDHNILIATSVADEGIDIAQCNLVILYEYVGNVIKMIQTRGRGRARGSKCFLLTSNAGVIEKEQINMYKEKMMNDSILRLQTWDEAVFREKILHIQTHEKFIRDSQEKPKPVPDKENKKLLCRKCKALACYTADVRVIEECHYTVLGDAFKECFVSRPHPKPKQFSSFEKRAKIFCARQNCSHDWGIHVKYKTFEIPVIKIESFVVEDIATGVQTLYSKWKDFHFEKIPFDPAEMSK

Q: With “5'-Cy3-CCACCCGCCCCCCUAGUGAGGGGGGCGGGCC-3' (RNA, 5' {Cy3}, backbone not given here; RNA hairpin ligand with non-base-paired ends, used in fluorescence anisotropy binding assays) [fluorescently labeled 14mer dsRNA, Cy3-labeled hairpin RNA containing non-base-paired RNA ends, purchased from Biomers]” as the molecule, how does the Kd (RIG-I [1]; absence of ATP, read-out: KD, RIG-I) read?
A: 0.54 µM

Q: And the Kd (RIG-I [1]; presence of 5 mM ATP, read-out: KD, RIG-I + ATP)?
A: 1.04 µM

Q: And the Kd (RIG-I C268F [2]; absence of ATP, read-out: KD, RIG-I C268F)?
A: 0.098 µM

Q: What about the Kd (RIG-I C268F [2]; presence of 5 mM ATP, read-out: KD, RIG-I C268F + ATP) of the same molecule?
A: 0.058 µM

Q: How did the Kd (RIG-I C268F [3]; absence of RNA, n = 4, read-out: Affinity (KD) to RIG-I C268F) turn out when MANT-ATPγS was run?
A: 116 ± 13 µM

Q: What about the Kd (RIG-I C268F [3]; presence of equimolar 14mer dsRNA, n.f. = no fit possible as no saturation was reached, read-out: Affinity (KD) to RIG-I C268F + RNA) of the same molecule?
A: 147 ± 55 µM

Q: And the Kd (RIG-I [4]; absence of RNA, full-length His-RIG-I, read-out: Affinity (KD) to RIG-I)?
A: 58 ± 7 µM

Q: What about the Kd (RIG-I [4]; presence of equimolar 14mer dsRNA, read-out: Affinity (KD) to RIG-I + RNA) of the same molecule?
A: 11 ± 1 µM

B1: Cy3-hpRNA (14mer stem hairpin) (structured_RNA)
RNA: CCACCCGCCCCCCUAGUGAGGGGGGCGGGCC
Q: Does B1 bind (RIG-I C268F [5])?
A: binds

Q: Does B1 bind (RIG-I wild type)?
A: binds

B2: 14mer dsRNA (dsRNA)
RNA 1: CGACGCUAGCGUCG
RNA 2: CGACGCUAGCGUCG
Q: Does B2 bind (RIG-I Δ2CARD C268F)?
A: binds
